Results published in Sander's compilation of Henry's law constants (doi:10.1016/s0378-3812(02)00087-0).

test: Henry solubility constant Hcp at 303 K (mol/(m3 Pa)); conditions: reference: Hovorka et al. (2002)

Structure (SMILES) | Henry solubility constant Hcp at 303 K
COCCOC(C)=O [2-methoxyethyl ethanoate] | 3
COCC(=O)OC [methyl methoxyacetate] | 2.5
C=CC#N [2-propenenitrile] | 0.076
COC(=O)CC(C)=O [3-oxobutanoic acid, methyl ester] | 6.4
CCOCCOC(C)=O [2-ethoxyethyl ethanoate] | 3

test: Henry solubility constant Hcp at 298.15 K (mol/(m3 Pa)); conditions: reference: Hovorka et al. (2002)

Structure (SMILES) | Henry solubility constant Hcp
CC#N [ethanenitrile] | 0.32
CC(C)CO [2-methyl-1-propanol] | 0.67

The remaining lines, values ahead:

Henry solubility constant Hcp | Structure (SMILES)
2.2 | OC1CCCC1 [cyclopentanol]
0.86 | O=C1CCCCC1 [cyclohexanone]
0.083 | COC(C)=O [methyl ethanoate]
0.82 | O=C1CCCC1 [cyclopentanone]
